Measurements: patent US11919854B2, “P2RX7 modulators in therapy” (Centre national de la recherche scientifique, priority 2018, dated 2024)
“Also recorded” adds a separate entry of the source.

Tests used:
[1] = tested on: B16F10 or LLC (Lewis Lung Cancer) cells; experiment: Syngeneic tumor mice models, statements covering both B16F10 and LLC; assay type: in vivo, C57BL6 mice
Method: (§1) 5×10^5 LLC or 5×10^5 B16F10 cells were injected sub cutaneously in the right flank of C57BL6 mice. Mice received HEI3090 (ip, 2.5 mg/kg in 10% DMSO/PBS) daily or placebo (10% DMSO/PBS). A,C. incidence of tumor appearance B,D. Tumor size (mm2) and tumor weight at sacrifice day (J12). E. HEI-treated tumors are more immunogenic. Expression of CMH1 (H2K^b/D^b) and PD-L1 by LLC (black) and B16F10 (grey) tumors is shown in dot plots. Numbers highlighted the percentage of tumor cells positive for H2K^b/D^b and PD-L1. […] F. CD-45 positive infiltrates is increased in LLC and B16F10 tumors. *, p<0.05; **, p<0.01; ***, p<0.001 Mann-Whitney test.
(§2) 5×10^5 LLC or 5×10^5 B16F10 cells were injected sub cutaneously in the right flank of C57BL6 mice. Mice received HEI3090 (ip, 2.5 mg/kg in 10% DMSO/PBS) daily or placebo (10% DMSO/PBS). A. The quantity of immunosuppressive cells is reduced. Dot plot of representative experiment. Numbers highlighted the percentage of M-MDSC and PMN-MDSC. […] B. The quantity of effector T cells ([…], NK, CD4+) is increased.
4.2. By killing tumoral cells, HEI3090 may represent a new anti-tumor treatment. To test this hypothesis, immunocompetent C57B16J mice were subcutaneously injected with 5×10^5 B16F10 or 5×10^5 LLC (Lewis Lung Cancer) cells and treated daily with HEI3090 (ip, 2.5 mg/kg in 10% DMSO/PBS) or placebo (10% DMSO/PBS). […] In both tumor mice models, tumors weight in the treated group was reduced by 10-fold in the B16F10 model (8 mg vs 81 mg) and by 4-folds in the LLC model (80 mg vs 295 mg). Of interest, tumors from the HEI3090 treated group are more immunogenic than tumors from the placebo group.

[2] = tested on: P2RX7; experiment: Large pore opening in splenocytes from control or p2rx7 KO mice; assay type: cell-based, mouse; conditions: HEI3090 50 μM, BzATP 500 μM
Method: A. Splenocytes from control or p2rx7^exon2 KO mice were isolated and treated with HEI3090 (50 μM) in presence of absence of BzATP (500 μM). B. Large pore opening induced by increasing concentration of BzATP in presence or absence of HEI3090 in human P2RX7 expressing cells.
Indeed, with the same BzATP concentration, more cells are positive for Topro3 staining.

[3] = tested on: LLC (Lewis Lung Cancer) cells; experiment: Syngeneic tumor mice model, LLC subcutaneous; assay type: in vivo, C57BL6 mice
Method: as §1, §2
5×10^5 LLC cells were injected sub cutaneously in the right flank of C57BL6 mice. Mice received HEI3090 (ip, 2.5 mg/kg in 10% DMSO/PBS) alone or in presence of anti CD4 antibody daily or placebo (10% DMSO/PBS). A. Tumor growth from the 3 groups was followed daily. B. tumor weight at sacrifice day (J12). *, p<0.05; ****, p<0.0001 (Mann-Whitney test).
a, b. Phenotypic flow cytometry analyses of tumor infiltrating cells. LLC tumors were collected at day 12. Proportion of PMN-MDSC among CD45+ within LLC tumors from mice treated with vehicle or HEI3090 (a). Ratio of NK, CD4+ or CD8+ T cells on PMN-MDSC (b).
c, d. 5.105 LLC were injected s.c. into the flank of C57BL6/J mice. Then mice were treated i.p. with vehicle (PBS, 10% DMSO) or with HEI3090 (1.5 mg/kg in PBS, 10% DMSO) or with HEI3090 and depleting antibody against NK1.1, CD4+ or CD8+ T cells. Antibodies were administered i.p every 3 days (200 μg/injection). Spaghetti plots and tumor weight at day 12 (d). Each curve represents one mouse.
e-g Functional flow cytometry analyses of tumor infiltrating immune cells or splenocytes. Tumors were stimulated with PMA/ionomycine and production of IFN-γ and IL-10 were simultaneously analyzed in CD45+, NK, CD4+ or CD8+ T cells. Graphs shown proportion of IFN-γ producing cells into CD45+ cells or geometric mean of fluorescence (e). Representative dot plots of IFN-γ and IL-10 staining into TILs (f). Ratios of IFN-γ on IL-10 positive cells on each TIL. Degranulation assay of splenocytes from LLC tumor bearing mice treated with vehicle or HEI3090 (g) Splenocytes were re-stimulated with LLC in vitro and CD107a positive cells in NK, CD4+ and CD8+ T cells were represented.
a. Flow cytometry analyses of P2RX7 expression among conventional dendritic cells CD4+ or CD8+ within LLC tumors.
b. Protein levels of IL-1p and IL-18 in serum of LLC tumor bearing mice treated with vehicle or HEI3090, determined by ELISA.
c. 5.105 LLC were injected s.c. into the flank of C57BL6/J mice. Then mice were treated i.p. with vehicle (PBS, 10% DMSO) or with HEI3090 (1.5 mg/kg in PBS, 10% DMSO) or with HEI3090 and neutralizing antibody against IL-1p or IL-18 from day 1 to day 12. Antibodies were administered i.p every 3 days (200 μg/injection).
e. Effect of HEI3090 on tumor growth in IL-18 deficient mice (IL-18^−/−). 5.105 LLC were injected s.c. into the flank of IL-18^−/− mice. Mice were treated i.p. with vehicle (PBS, 10% DMSO) or with HEI3090 (1.5 mg/kg in PBS, 10% DMSO) from day 1 to day 12.
4.2. By killing tumoral cells, HEI3090 may represent a new anti-tumor treatment. To test this hypothesis, immunocompetent C57B16J mice were subcutaneously injected with 5×10^5 B16F10 or 5×10^5 LLC (Lewis Lung Cancer) cells and treated daily with HEI3090 (ip, 2.5 mg/kg in 10% DMSO/PBS) or placebo (10% DMSO/PBS). […]

O=C(NCc1ccc(Cl)cc1Cl)[C@@H]1CCC(=O)N1C(=O)Nc1ccc(Cl)nc1 [HEI3090, (S)—N^1-(6-Chloropyridin-3-yl)-N^2-(2,4-dichlorobenzyl)-5-oxopyrrolidine-1,2-dicarboxamide]
CD45 positive cells in tumors ([1]; HEI3090 ip 2.5 mg/kg daily): enriched with CD45 positive cells
delay of tumor appearance ([1]; HEI3090 ip 2.5 mg/kg daily): 1 to 4 days
ratio between effector cells (Tγδ, NK, CD4+) and total MDSC ([1]; HEI3090 ip 2.5 mg/kg daily): in favor to effector cells
tumor expression of PD-L1 vs placebo ([1]; HEI3090 ip 2.5 mg/kg daily): 2 fold
tumor expression of major complex histocompatibility 1 (MCH1) vs placebo ([1]; HEI3090 ip 2.5 mg/kg daily): 2 fold
tumor growth ([1]; HEI3090 ip 2.5 mg/kg daily): potently inhibits tumor growth
tumor volume and tumor weight ([1]; HEI3090 ip 2.5 mg/kg daily, sacrifice day J12): drastically reduced
overall mice survival ([1]; therapeutically treated mice (increase from 22)): 50 days
immune cells within the spleen of treated mice ([1]; tumor bearing mice treated with HEI3090): unable to detect any modification of immune cells within the spleen
Topro3 incorporation / effect in splenocytes from P2rx7 KO mice [2]: Topro3 incorporation is lost; also recorded: absence of effect
large pore opening in presence of BzATP ([2]; splenocytes from control mice): potentializes large pore opening in presence of BzATP
IL18 in plasma and within the tumor ([3]; ELISA in serum, IHC in tumors): overexpressed
immune cells required for anti-tumor effect ([3]; HEI3090 1.5 mg/kg ip with depleting antibody against NK1.1, CD4+ or CD8+ T cells): both NK and CD4+ cells are required
IFN-γ expression of NK and CD4+ cells in tumor ([3]; HEI3090 1.5 mg/kg ip, flow cytometry): expressed more IFN-γ
immunosuppressive cells (PMN-MDSC) in tumor infiltrates ([3]; HEI3090 ip 2.5 mg/kg daily): less PMN-MDSC
tumors weight ([3]; HEI3090 ip 2.5 mg/kg daily (placebo 295 mg)): 80 mg
reduction of tumors weight ([3]; HEI3090 ip 2.5 mg/kg daily, vs placebo): 4 folds
tumor size with depletion of T CD4+ lymphocytes ([3]; HEI3090 plus anti-T CD4+ antibody): bigger than tumors from the HEI3090 group, and smaller than tumors from the placebo group
tumor growth without IL18 ([3]; blocking IL18 antibody and Il18−/− mice, HEI3090 1.5 mg/kg ip): did not block tumor growth anymore
P2RX7 expression on dendritic cells within tumors ([3]; flow cytometry): increased P2RX7 expression on dendritic cells
